Reference: publication PMC12124432, “Antimicrobial Peptide‐Peptoid Macrocycles from the Polymyxin B2 Chemical Space” (Angewandte Chemie (International Ed. in English), 2025)
Converted amounts (≈) assume the structure as drawn. Values belong to the compound of their own block, whether it stands above or below them. Bridge positions count the residues as written; N and C are the ends. Square brackets hold non-standard residues; d marks the D form. Peptide text beside a SMILES is read from it. * marks the point of attachment. Heptanoyl(6-Me) = CC(C)CCCCC(=O)*; Dab = NCC[C@H](N)C(=O)O

Legend:
[1] = system: E. coli W3110; format: cell-based, Escherichia coli; settings: W3110, pH 8.5
Procedure: (§1) Minimal Inhibitory Concentration (MIC)
(§2) Antimicrobial activity was assayed for all the peptide-peptoids against P. aeruginosa PAO1, K. pneumoniae NCTC418, E. coli W3110, A. baumannii ATCC 19606, methicillin-resistant S. aureus COL (MRSA) and for selected peptides on P. aeruginosa PA14, as well as the clinical isolates ZEM-1A and ZEM9A, K. pneumoniae OXA-48, Enterobacter cloacae, Stenotrophomonas maltophilia and Staphylococus epidermidis. To determine the Minimal Inhibitory Concentration (MIC), Broth Microdilution method was used. A colony of bacteria was picked and grown in LB medium overnight at 37 °C. The next day, the culture was then regrown in LB medium to log phase (OD600 = 0.6 to 0.8), which lasted approximately 4 hours, and diluted to an OD600 of 0.022 in the desired medium (full MH or 12.5% MH).
(§3) The compounds were prepared as stock solutions of 2 mg/mL in sterilized MilliQ deionized water and then diluted in the desired media (full MH or 12.5% MH) to reach the first concentration tested (32 μg/mL). The compounds were added to the first well of a 96-well sterile, round bottom microtiter plates in polystyrene (TPP®, untreated) and diluted serially by ½ in the desired media (full MH or 12.5% MH), to a final volume of 150 µL/well. To each well was finally added 4 µL of the diluted bacterial suspension (see above), corresponding to approximately 5×10^5 CFU. For each test, two columns of the plate were kept for sterility control (medium only), growth control (medium with bacterial inoculum, no compound). The positive control, Polymyxin B (starting with a concentration of 16 µg/mL) in MH medium with bacterial inoculums, was introduced in the two first lines of the plate. The plates were incubated at 37 °C for ca. 18 hours under static conditions. 15 µL of 3-(4,5-dimethylthiazol-2-yl)-2,5-diphenyltetrazolium bromide (MTT)[7] (1 mg/mL in sterilized MilliQ deionized water) were added to each well and the plates were incubated for 20-30 minutes at room temperature. The […]
(§4) minimal inhibitory concentration (MIC) was defined as the lowest concentration of the compound that inhibits the visible growth of the tested bacteria (yellow) with the unaided eye.
(§5) Minimal Hemolytic Concentration (MHC) […]
(§6) 11. Minimal inhibitory in presence of salt
(§7) The same procedure as for the antibacterial activity measurements by minimal inhibitory concentration assay (MIC) was applied. The media, 12.5% Mueller-Hinton broth was this time supplemented with different salt concentrations (0, 100, 200 300 mM NaCl). […]
(§8) All data, in μg/mL, measured against P. aeruginosa PAO1, with or without addition of salt (NaCl). The values were measured in dilute medium (12.5% MH) and at slightly basic pH (pH = 8.5), after incubation for 16-20 h at 37 °C. Values represent two different duplicate MIC determinations.

[2] = system: P. aeruginosa PAO1; format: cell-based, Pseudomonas aeruginosa; settings: PAO1, pH 8.5
Procedure: as §1, §2, §3, §4, §5, §6
as §7, with “NaCl). The MIC activities were then determined against Pseudomonas aeruginosa PAO1 and Escherichia coli” for “NaCl).”
Table S6. Minimal inhibitory concentration (MIC) on P. aeruginosa PAO1 as function of salt […]
as §8

[3] = system: E. coli W3110, P. aeruginosa PAO1, S. aureus COL (MRSA), A. baumannii ATCC19606, K. pneumoniae NCTC418; assay: MIC of macrocycles versus their linearized analogs (Table S4 panel); format: cell-based; settings: Table S4, 12.5% MH pH 7.4
Procedure: as §1
as §2, with “MH). […]” for “MH).”
To determine the minimal hemolytic concentration (MHC), stock solutions of 8 mg/mL of the peptide in sterilized MilliQ water deionized were prepared and 50 μL were diluted serially by ½ in 50 μL PBS (pH 7.4) in 96-well plate (Costar or Nunc, polystyrene, untreated). […] Minimal hemolytic concentration (MHC) end points were determined by visual determination of the wells after the incubation period. […]

[4] = Dansyl-polymyxin (DsPMB) displacement assay; format: binding, Pseudomonas aeruginosa; settings: 37 °C, 2.5 µM DsPMB, LPS 3 μg/mL, emission 485 nm; mean ± SD, n = 3
Procedure: 14. Dansyl-Polymyxin (DsPMB) Displacement Assay
Saturation determination. Dansyl-polymyxin (DsPMB) in water (1.5 mg/mL) and lyophilized lipopolysaccharides from P. aeruginosa were obtained from Merck. LPS were prepared as a 1 mg/mL stock solution in mQ water and stored at 4 °C. The fluorescence saturation of DsPMB with LPS was first determined, by titration (0.25 μM increments, up to 5 μM) of the DsPMB into a 3 μg/mL of LPS (10 mM Tris, 10 mM NaCl buffer, pH 7.4), at 37 °C. The fluorescence was recorded with a Jasco spectrofluorometer FP-8300, with the excitation at λex = 340 nm (5 nm slit width) and recorded from 420 to 650 nm. The fluorescence was recorded two minutes after each addition. Saturation was graphically determined, at a concentration of D sPMB ≈ 2.5 μM (λem = 485 nm). Each measurement was determined in triplicates.
Displacement assay. The displacement effect of the various peptides was determined by measuring the reduction of fluorescence intensity, at 37 °C. Initially, DsPMB (2.5 μM) was mixed with LPS (3 μg/mL) and let it react for 15 minutes before recording the fluorescence […]
intensity (at λem = 485 nm and λex = 340 nm). Then, the peptide was titrated (1 μM increments, up to 10 μM) into the DsPMB/LPS mixture, and the fluorescence was recorded two minutes after the compound addition. The decrease in fluorescence was interpreted as the displacement of DsPMB from the LPS due to competitive binding by the peptide.[12,13] Specific Fluorescence Enhancement
Figure S8. Fluorescence emission of dansyl-polymyxin (DsPMB) in presence of lipopolysaccharide (LPS) extracted from P. aeruginosa (3 µg/mL) in TRIS/NaCl buffer (10 mM, pH 7.4). The fluorophore was excited at 340 nm (5 nm slit width) and recorded from 420 to 650 nm. The data represent mean value from three measurement. Specific fluorescence represents the emission of DsPMB with the non-specific fluorescence (no LPS) deduced.

[5] = system: human red blood cells; assay: Minimal hemolytic concentration (MHC); format: cell-based; settings: pH 7.4, 25 °C, 4 h
Procedure: as §4
Minimal Hemolytic Concentration (MHC)
To determine the minimal hemolytic concentration (MHC), stock solutions of 8 mg/mL of the peptide in sterilized MilliQ water deionized were prepared and 50 μL were diluted serially by ½ in 50 μL PBS (pH 7.4) in 96-well plate (Costar or Nunc, polystyrene, untreated). Human red blood cells (hRBC) were obtained by centrifugation of 1.5 mL of whole blood, from the blood bank of Bern, at 3000 rpm for 15 minutes at 4 °C. Plasma was discarded and the pellet was re-suspended in a 15 mL Falcon tube in 5 mL of PBS. The washing was repeated three times, and the remaining pellet was re-suspended in 10 mL of PBS at a final hRBC concentration of 5%. The hRBC suspension (50 μL) was added to each well and the plate was incubated at room temperature for 4 hours. Minimal hemolytic concentration (MHC) end points were determined by visual determination of the wells after the incubation period.
Controls on each plate included a blank medium control (50 μL PBS + 50 μL of hRBC suspension) and a hemolytic activity control t-octylphenoxypolyethoxyethanol (Triton-X100) (1 % in MilliQ-deionized water) 50 μL + 50 μL hRBC suspension).
Table S3. […]

[6] = Serum stability assay; format: in vitro ADME; settings: human serum 12.5% in 0.1 M Tris buffer pH 7.4, 37 °C, 200 µM peptide, time points 0/1/6/10/24 h, triplicates, LC(-MS), 4-hydroxybenzoic acid internal standard
Procedure: Human serum was diluted in 0.1 M filtered TRIS buffer pH 7.4 (25%, 1:3, v/v). Selected hybrids were diluted in 0.1 M filtered TRIS buffer pH 7.4 to a concentration of 400 μM and 0.1 mg/mL of 4-hydroxybenzoic acid was added as internal standard. Aliquots of peptide solution (50 μL) were added to aliquots of serum (50 uL) in sterile Eppendorf tubes, to reach a peptide concentration of 200 μM during the assay. Samples were incubated at 37 °C under gentle stirring (350 rpm). Different samples (triplicates) were quenched at different time points (0 / 1 / 6 / 10 / 24 h) by precipitating serum proteins through the addition of 100 μL of a solution ZnSO4·7 H2O (0.05 mM) in water/ACN (1:1) and cooling in ice bath for 10 minutes.
Protein precipitates were pelleted under centrifugation (5 min at 14’000 rpm) and the supernatants were analysed by LC-MS. Experiment controls included a precipitation control for each peptide to test their resistance to the protein precipitation conditions and serum blanks to check reproducibility over different serum batches. Peaks corresponding to the internal standard and the undegraded peptides were integrated, with the ratio peptide/standard at t = 0 h as 100 % undegraded peptide.
Cell Culture Conditions. […]

MIC on E. coli, 0 mM NaCl [1]: 0.25 µg/mL (≈ 0.21 µM) | MIC on E. coli, 100 mM NaCl [1]: 0.25 µg/mL (≈ 0.21 µM) | MIC on E. coli, 200 mM NaCl [1]: 0.25 µg/mL (≈ 0.21 µM) | MIC on E. coli, 300 mM NaCl [1]: 0.25 µg/mL (≈ 0.21 µM) | MIC on P. aeruginosa, 0 mM NaCl [2]: 0.5 µg/mL (≈ 0.42 µM) | MIC on P. aeruginosa, 100 mM NaCl [2]: 0.25 µg/mL (≈ 0.21 µM) | MIC on P. aeruginosa, 200 mM NaCl [2]: 0.25 µg/mL (≈ 0.21 µM) | MIC on P. aeruginosa, 300 mM NaCl [2]: 0.25 µg/mL (≈ 0.21 µM)
Compound: CC(C)CCCCC(=O)N[C@@H](CCN)C(=O)N[C@H](C(=O)N[C@@H](CCN)C(=O)N[C@H]1CCNC(=O)[C@H]([C@@H](C)O)NC(=O)[C@H](CCN)NC(=O)[C@H](CCN)NC(=O)[C@H](CC(C)C)NC(=O)[C@@H](Cc2ccccc2)NC(=O)[C@H](CCN)NC1=O)[C@@H](C)O [PMB2, polymyxin B2] ({Heptanoyl(6-Me)}-[Dab]T[Dab][Dab][Dab][dF]L[Dab][Dab]T; lactam 4-C)

Compound: FA4-Val-C2-A1-Ala-Lys-Gly-Lys-C3-Lys [EB13lin, linearized analog of EB13]
Loss of activity of linearized analog relative to macrocyclic parent [3]: between two‐fold and eight‐fold less active

Compound: FA5-A3-Lys-Asn-Ala-Lys-H2-Lys-C3-Lys [EB12lin, linearized analog of EB12]
Loss of activity of linearized analog relative to macrocyclic parent [3]: between two‐fold and eight‐fold less active

Compound: FA7-H4-C3-A6-Dab(*)-C2-Lys-Ser-Lys-C1-Lys-* (lariat or depsi) [EB33, hemolytic peptide-peptoid macrocycle, PDGA-generated PMB2 analog]
Binding to lipopolysaccharide (dansyl-PMB fluorescence displacement) [4]: an even stronger signal | Hemolysis of red blood cells relative to PMB2 [5]: slightly more hemolytic than PMB2

Compound: FA10-A3-Lys-C2-Dab(*)-Asn-C2-Lys-Val-Lys-* (lariat or depsi) [EB18, peptide-peptoid macrocycle, PDGA-generated PMB2 analog]
Stability against proteolysis in human serum (undegraded peptide) [6]: did not show any significant degradation in human serum
